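Values below derive from 48-hour exposures of cells grown in 96-well plates, with endpoints linearly interpolated between the two concentrations bracketing the appropriate inhibition level. TGI: total growth inhibition.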
Tests used:
Assay in all cases: NCI tumour cell line growth inhibition, 48 h
XF 498 CNS = test system: XF 498 CNS
LXFL 529 NSCLC = test system: LXFL 529 NSCLC
SF-295 CNS = test system: SF-295 CNS
786-0 renal = test system: 786-0 renal
IGROV1 ovarian = test system: IGROV1 ovarian
SW-620 colon = test system: SW-620 colon
M19-MEL melanoma = test system: M19-MEL melanoma
COLO 205 colon = test system: COLO 205 colon
CAKI-1 renal = test system: CAKI-1 renal
TK-10 renal = test system: TK-10 renal
SF-268 CNS = test system: SF-268 CNS
UO-31 renal = test system: UO-31 renal
HOP-62 NSCLC = test system: HOP-62 NSCLC
DLD-1 colon = test system: DLD-1 colon
A549 NSCLC = test system: A549 NSCLC
OVCAR-3 ovarian = test system: OVCAR-3 ovarian
KM12 colon = test system: KM12 colon
EKVX NSCLC = test system: EKVX NSCLC
MALME-3M melanoma = test system: MALME-3M melanoma
U251 CNS = test system: U251 CNS
MOLT-4 leukemia = test system: MOLT-4 leukemia
SF-539 CNS = test system: SF-539 CNS
KM20L2 colon = test system: KM20L2 colon
SK-OV-3 ovarian = test system: SK-OV-3 ovarian
RPMI-8226 leukemia = test system: RPMI-8226 leukemia
HCT-15 colon = test system: HCT-15 colon
HL-60(TB) leukemia = test system: HL-60(TB) leukemia
A498 renal = test system: A498 renal
OVCAR-5 ovarian = test system: OVCAR-5 ovarian
NCI-H23 lung = test system: NCI-H23 lung
DMS 273 small cell lung = test system: DMS 273 small cell lung
SK-MEL-5 melanoma = test system: SK-MEL-5 melanoma
NCI-H460 lung = test system: NCI-H460 lung
NCI-H522 lung = test system: NCI-H522 lung
HOP-18 NSCLC = test system: HOP-18 NSCLC
K-562 leukemia = test system: K-562 leukemia
HCC-2998 colon = test system: HCC-2998 colon
HT29 colon = test system: HT29 colon
SK-MEL-2 melanoma = test system: SK-MEL-2 melanoma
OVCAR-8 ovarian = test system: OVCAR-8 ovarian
CCRF-CEM leukemia = test system: CCRF-CEM leukemia
ACHN renal = test system: ACHN renal
NCI-H226 lung = test system: NCI-H226 lung
SNB-78 CNS = test system: SNB-78 CNS
SNB-19 CNS = test system: SNB-19 CNS
SN12C renal = test system: SN12C renal
UACC-62 melanoma = test system: UACC-62 melanoma
LOX IMVI melanoma = test system: LOX IMVI melanoma
UACC-257 melanoma = test system: UACC-257 melanoma
M14 melanoma = test system: M14 melanoma
HCT-116 colon = test system: HCT-116 colon
HOP-92 NSCLC = test system: HOP-92 NSCLC

## O/N=C(\C(=N/O)Nc1ccc(-c2ccc(NC(=N/O)/C(=N\O)c3ccccc3)cc2)cc1)c1ccccc1
XF 498 CNS
  TGI: 41.3 µM
LXFL 529 NSCLC
  TGI: 32.2 µM
SF-295 CNS
  TGI: 37.4 µM
786-0 renal
  TGI: 41.4 µM
IGROV1 ovarian
  TGI: 57.6 µM
SW-620 colon
  TGI: 49.8 µM
M19-MEL melanoma
  TGI: 31.4 µM
COLO 205 colon
  TGI: 30.4 µM
CAKI-1 renal
  TGI: 62.9 µM
TK-10 renal
  TGI: 82.4 µM
SF-268 CNS
  TGI: 69.2 µM
UO-31 renal
  TGI: 82.9 µM
HOP-62 NSCLC
  TGI: 30.1 µM
DLD-1 colon
  TGI: 53.8 µM
A549 NSCLC
  TGI: 79.1 µM
OVCAR-3 ovarian
  TGI: 40.2 µM
KM12 colon
  TGI: 33.6 µM
EKVX NSCLC
  TGI: 57.9 µM
MALME-3M melanoma
  TGI: 44.7 µM
U251 CNS
  TGI: 60.9 µM
MOLT-4 leukemia
  TGI: 41.3 µM
SF-539 CNS
  TGI: 35.3 µM
KM20L2 colon
  TGI: 36.5 µM
SK-OV-3 ovarian
  TGI: 33.8 µM
RPMI-8226 leukemia
  TGI: 57.9 µM
HCT-15 colon
  TGI: 70 µM
HL-60(TB) leukemia
  TGI: 55.6 µM
A498 renal
  TGI: 51 µM
OVCAR-5 ovarian
  TGI: 27.5 µM
NCI-H23 lung
  TGI: 32.1 µM
DMS 273 small cell lung
  TGI: 36.3 µM
SK-MEL-5 melanoma
  TGI: 34.8 µM
NCI-H460 lung
  TGI: 32.4 µM
NCI-H522 lung
  TGI: 33.3 µM
HOP-18 NSCLC
  TGI: 37.3 µM
K-562 leukemia
  TGI: 44 µM
HCC-2998 colon
  TGI: 18.7 µM
HT29 colon
  TGI: 29.2 µM
SK-MEL-2 melanoma
  TGI: 36.3 µM
OVCAR-8 ovarian
  TGI: 45 µM
CCRF-CEM leukemia
  TGI: 46.3 µM
ACHN renal
  TGI: 97.2 µM
NCI-H226 lung
  TGI: 69.2 µM
SNB-78 CNS
  TGI: 97.4 µM
SNB-19 CNS
  TGI: 50.7 µM
SN12C renal
  TGI: 97.3 µM
UACC-62 melanoma
  TGI: 35.4 µM
LOX IMVI melanoma
  TGI: 29.1 µM
UACC-257 melanoma
  TGI: 80.6 µM
M14 melanoma
  TGI: 32.8 µM
HCT-116 colon
  TGI: 34.6 µM
HOP-92 NSCLC
  TGI: 58.1 µM

— PubChem BioAssay (NCI)
